Experimental data reported in patent US20260257998A1, “ERR MODULATORS” (University of Health Sciences and Pharmacy in St. Louis, priority 2023, published 2026).
pEC50: −log10 of the molar value.

Assays:
[1] = molecular target: T1, ERRα (Homo sapiens, UniProt P11474); test: ERRE luciferase reporter assay in HEK293 cells transfected with pcDNA3.1 ERRα; type: cell-based; parameters: key to EC50 (ERRα): ***<1 μM; **1-5 μM; *>5 μM; i.a. (inactive); conditions: 24 hours treatment, luciferase activity
T1 construct: expressed in transfected cells; host or cells: HEK293
T1 sequence (P11474 1-423): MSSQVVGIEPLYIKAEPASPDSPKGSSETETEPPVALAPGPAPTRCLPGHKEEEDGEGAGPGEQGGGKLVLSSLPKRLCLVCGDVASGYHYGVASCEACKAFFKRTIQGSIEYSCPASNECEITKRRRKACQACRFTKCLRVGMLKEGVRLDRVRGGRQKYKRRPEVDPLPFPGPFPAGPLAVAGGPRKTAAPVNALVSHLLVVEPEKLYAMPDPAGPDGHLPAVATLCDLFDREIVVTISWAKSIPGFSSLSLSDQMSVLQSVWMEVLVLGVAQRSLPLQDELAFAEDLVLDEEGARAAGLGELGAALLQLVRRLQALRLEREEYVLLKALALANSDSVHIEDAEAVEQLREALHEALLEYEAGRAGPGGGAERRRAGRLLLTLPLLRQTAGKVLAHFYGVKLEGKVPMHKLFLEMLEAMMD
Method: (§1) HEK293 cells were maintained in Dulbecco's modified Eagles medium (DMEM) supplemented with 10% fetal bovine serum at 37° C. under 5% CO2. […] Cells were transfected with ERRE reporter construct and pcDNA3.1 ERRα or ERRγ. Twenty-four-hours post-transfection, the cells were treated with vehicle or compound (various concentrations) for 24 hours (4 wells per dose). Luciferase activity was measured using the One-Glo Tox luciferase reporter assay system (Promega) and […] were calculated using GraphPad Prism software.

[2] = molecular target: T2, ERRγ (Homo sapiens, UniProt P62508); test: ERRE luciferase reporter assay in HEK293 cells transfected with pcDNA3.1 ERRγ; type: cell-based; parameters: key to EC50 (ERRγ): ***<1 μM; **1-5 μM; *>5 μM; i.a. (inactive); conditions: 24 hours treatment, luciferase activity
T2 construct: expressed in transfected cells; host or cells: HEK293
T2 sequence (P62508 1-458): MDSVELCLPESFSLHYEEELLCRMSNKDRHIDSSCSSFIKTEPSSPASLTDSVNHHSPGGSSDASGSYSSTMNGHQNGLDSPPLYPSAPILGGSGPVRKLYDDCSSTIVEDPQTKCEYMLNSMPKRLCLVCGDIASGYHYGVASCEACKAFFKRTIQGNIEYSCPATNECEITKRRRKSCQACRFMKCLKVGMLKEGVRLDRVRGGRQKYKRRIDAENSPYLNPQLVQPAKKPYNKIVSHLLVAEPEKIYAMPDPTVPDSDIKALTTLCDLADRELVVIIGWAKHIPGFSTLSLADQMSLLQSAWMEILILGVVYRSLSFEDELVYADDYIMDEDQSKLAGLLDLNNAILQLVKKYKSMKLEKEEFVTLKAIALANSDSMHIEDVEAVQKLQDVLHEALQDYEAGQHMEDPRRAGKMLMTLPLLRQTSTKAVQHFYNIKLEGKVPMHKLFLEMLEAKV
Method: as §1

Row | EC50 (ERRα) [1] | EC50 (ERRγ) [2] | pEC50 [1] | pEC50 [2] | Compound
1 |  |  | 5.30 to 6.00 | 5.30 to 6.00 | Oc1c(Cl)cccc1C1CC(c2ccc(Br)cc2)=NN1 (centres unmarked) [Entry 45, 2-(3-(4-Bromophenyl)-4,5-dihydro-1H-pyrazol-5-yl)-6-chlorophenol]
2 |  |  | 5.30 to 6.00 | < 5.30 | Oc1ccccc1C1CC(c2ccc(F)cc2)=NN1 (centres unmarked) [Entry 46, 2-(3-(4-Fluorophenyl)-4,5-dihydro-1H-pyrazol-5-yl)phenol]
3 |  |  | < 5.30 | 5.30 to 6.00 | Oc1ccccc1C1CC(c2ccc(Cl)cc2)=NN1 (centres unmarked) [Entry 47, 2-(3-(4-Chlorophenyl)-4,5-dihydro-1H-pyrazol-5-yl)phenol]
4 | i.a. |  |  | < 5.30 | Cc1ccc(C2CC(c3ccc(Br)cc3)=NN2)c(O)c1 (centres unmarked) [Entry 61, 2-(3-(4-bromophenyl)-4,5-dihydro-1H-pyrazol-5-yl)-5-methylphenol]
5 | i.a. | i.a. |  |  | FC(F)(F)c1ccc(C2=NNC(c3ccc4ccccc4c3)C2)cc1 (centres unmarked) [Entry 72, 5-(naphthalen-2-yl)-3-(4-(trifluoromethyl)phenyl)-4,5-dihydro-1H-pyrazole]
6 |  |  | 5.30 to 6.00 | 5.30 to 6.00 | Oc1ccc(C2CC(c3ccc(C(F)(F)F)cc3)=NN2)cc1 (centres unmarked) [Entry 73, 4-(3-(4-(trifluoromethyl)phenyl)-4,5-dihydro-1H-pyrazol-5-yl)phenol]
7 |  |  | 5.30 to 6.00 | 5.30 to 6.00 | FC(F)(F)c1ccc(C2=NNC(c3ccccc3)C2)cc1 (centres unmarked) [Entry 75, 5-phenyl-3-(4-(trifluoromethyl)phenyl)-4,5-dihydro-1H-pyrazole]
8 |  |  | 5.30 to 6.00 | 5.30 to 6.00 | Oc1cccc(C2CC(c3ccc(Br)cc3)=NN2)c1 (centres unmarked) [Entry 79, 3-(3-(4-bromophenyl)-4,5-dihydro-1H-pyrazol-5-yl)phenol]
9 |  |  | > 6.00 | 5.30 to 6.00 | Oc1ccc(C2CC(c3ccc(Br)cc3)=NN2)cc1 (centres unmarked) [Entry 80, 4-(3-(4-bromophenyl)-4,5-dihydro-1H-pyrazol-5-yl)phenol]
10 | i.a. | i.a. |  |  | Brc1ccc(C2=NNC(c3ccc4ccccc4c3)C2)cc1 (centres unmarked) [Entry 81, 3-(4-bromophenyl)-5-(naphthalen-2-yl)-4,5-dihydro-1H-pyrazole]
11 | i.a. | i.a. |  |  | FC(F)(F)c1cccc(C2=NNC(c3ccc4ccccc4c3)C2)c1 (centres unmarked) [Entry 83, 5-(naphthalen-2-yl)-3-(3-(trifluoromethyl)phenyl)-4,5-dihydro-1H-pyrazole]
12 |  |  | < 5.30 | < 5.30 | Oc1ccc(C2CC(c3cccc(Br)c3)=NN2)cc1 (centres unmarked) [Entry 84, 4-(3-(3-bromophenyl)-4,5-dihydro-1H-pyrazol-5-yl)phenol]
13 |  |  | < 5.30 | < 5.30 | Oc1ccc(C2CC(c3ccc(F)cc3)=NN2)cc1 (centres unmarked) [Entry 85, 4-(3-(4-fluorophenyl)-4,5-dihydro-1H-pyrazol-5-yl)phenol]

Continued, compound first:

Row | Compound | EC50 (ERRα) [1] | EC50 (ERRγ) [2] | pEC50 [1] | pEC50 [2]
14 | Oc1c(Br)cc(Br)cc1C1CC(c2cc(Br)cc(Br)c2)=NN1 (centres unmarked) [Entry 43, 2,4-Dibromo-6-(3-(3,5-dibromophenyl)-4,5-dihydro-1H-pyrazol-5-yl)phenol] | i.a. | i.a. |  | 
15 | Oc1ccccc1C1CC(c2ccc(Cl)cc2Cl)=NN1 (centres unmarked) [Entry 48, 2-(3-(2,4-Dichlorophenyl)-4,5-dihydro-1H-pyrazol-5-yl)phenol] | i.a. | i.a. |  | 
16 | Cc1ccc(O)c(C2CC(c3ccc(Cl)cc3Cl)=NN2)c1 (centres unmarked) [Entry 49, 2-(3-(2,4-Dichlorophenyl)-4,5-dihydro-1H-pyrazol-5-yl)-4-methylphenol] | i.a. | i.a. |  | 
17 | Oc1ccccc1C1=NNC(c2ccccc2)C1 (centres unmarked) [Entry 50, 2-(5-Phenyl-4,5-dihydro-1H-pyrazol-3-yl)phenol] |  |  | > 6.00 | 5.30 to 6.00
18 | COc1ccc(C2=NNC(c3ccccc3)C2)c(O)c1 (centres unmarked) [Entry 52, 5-Methoxy-2-(5-phenyl-4,5-dihydro-1H-pyrazol-3-yl)phenol] |  |  | > 6.00 | > 6.00
19 | COc1ccccc1C1=NNC(c2ccccc2O)C1 (centres unmarked) [Entry 53, 2-(3-(2-Methoxyphenyl)-4,5-dihydro-1H-pyrazol-5-yl)phenol] |  |  | 5.30 to 6.00 | 5.30 to 6.00
20 | Oc1ccccc1C1CC(c2ccccc2F)=NN1 (centres unmarked) [Entry 54, 2-(3-(2-Fluorophenyl)-4,5-dihydro-1H-pyrazol-5-yl)phenol] |  |  | 5.30 to 6.00 | < 5.30
21 | COc1ccc(C2=NNC(c3cccc(Cl)c3O)C2)cc1 (centres unmarked) [Entry 58, 2-chloro-6-(3-(4-methoxyphenyl)-4,5-dihydro-1H-pyrazol-5-yl)phenol] |  |  | 5.30 to 6.00 | 5.30 to 6.00
22 | COc1ccc(C2=NNC(c3ccc(C)cc3O)C2)cc1 (centres unmarked) [Entry 59, 2-(3-(4-methoxyphenyl)-4,5-dihydro-1H-pyrazol-5-yl)-5-methylphenol] |  |  | < 5.30 | < 5.30
23 | COc1ccccc1C1=NNC(c2cccc(Cl)c2O)C1 (centres unmarked) [Entry 60, 2-chloro-6-(3-(2-methoxyphenyl)-4,5-dihydro-1H-pyrazol-5-yl)phenol] | i.a. | i.a. |  | 
24 | COc1cccc(C2=NNC(c3ccccc3O)C2)c1 (centres unmarked) [Entry 62, 2-(3-(3-methoxyphenyl)-4,5-dihydro-1H-pyrazol-5-yl)phenol] |  | i.a. | 5.30 to 6.00 | 
25 | CC(C)c1ccc(O)c(C2CC(c3ccc(F)cc3)=NN2)c1 (centres unmarked) [Entry 63, 2-(3-(4-fluorophenyl)-4,5-dihydro-1H-pyrazol-5-yl)-4-isopropylphenol] | i.a. | i.a. |  | 
26 | COc1cccc(C2CC(c3ccc(C(F)(F)F)cc3)=NN2)c1O (centres unmarked) [Entry 64, 2-methoxy-6-(3-(4-(trifluoromethyl)phenyl)-4,5-dihydro-1H-pyrazol-5-yl)phenol] | i.a. |  |  | 5.30 to 6.00
27 | Cc1ccc(C2CC(c3cc(C(F)(F)F)cc(C(F)(F)F)c3)=NN2)c(O)c1 (centres unmarked) [Entry 65, 2-(3-(3,5-bis(trifluoromethyl)phenyl)-4,5-dihydro-1H-pyrazol-5-yl)-5-methylphenol] | i.a. | i.a. |  | 
28 | Oc1ccccc1C1=NNC(c2ccc(Cl)cc2)C1 (centres unmarked) [Entry 66, 2-(5-(4-chlorophenyl)-4,5-dihydro-1H-pyrazol-3-yl)phenol] |  |  | > 6.00 | > 6.00
29 | Oc1ccc(C2CC(c3ccccc3O)=NN2)cc1 (centres unmarked) [Entry 67, 2-(5-(4-hydroxyphenyl)-4,5-dihydro-1H-pyrazol-3-yl)phenol] | i.a. |  |  | < 5.30
30 | FC(F)(F)c1cc(C2=NNC(c3ccc(Cl)cc3)C2)cc(C(F)(F)F)c1 (centres unmarked) [Entry 68, 3-(3,5-bis(trifluoromethyl)phenyl)-5-(4-chlorophenyl)-4,5-dihydro-1H-pyrazole] | i.a. | i.a. |  | 
31 | Oc1ccccc1C1=NNC(c2c(O)cccc2Cl)C1 (centres unmarked) [Entry 69, 3-chloro-2-(3-(2-hydroxyphenyl)-4,5-dihydro-1H-pyrazol-5-yl)phenol] | i.a. | i.a. |  | 
32 | Cc1cc(C2CC(c3ccc(C(F)(F)F)cc3)=NN2)cc(C)c1O (centres unmarked) [Entry 70, 2,6-dimethyl-4-(3-(4-(trifluoromethyl)phenyl)-4,5-dihydro-1H-pyrazol-5-yl)phenol] | i.a. | i.a. |  | 
33 | Oc1ccc(C2CC(c3ccc(C(F)(F)F)cc3)=NN2)cc1Cl (centres unmarked) [Entry 71, 2-chloro-4-(3-(4-(trifluoromethyl)phenyl)-4,5-dihydro-1H-pyrazol-5-yl)phenol] | i.a. | i.a. |  | 
34 | Oc1cccc(C2CC(c3ccc(C(F)(F)F)cc3)=NN2)c1 (centres unmarked) [Entry 74, 3-(3-(4-(trifluoromethyl)phenyl)-4,5-dihydro-1H-pyrazol-5-yl)phenol] |  |  | 5.30 to 6.00 | 5.30 to 6.00
35 | Oc1ccc(C2CC(c3cccc(F)c3)=NN2)cc1 (centres unmarked) [Entry 77, 4-(3-(3-fluorophenyl)-4,5-dihydro-1H-pyrazol-5-yl)phenol] |  |  | < 5.30 | < 5.30
36 | Oc1cccc(C2CC(c3cccc(F)c3)=NN2)c1 (centres unmarked) [Entry 78, 3-(3-(3-fluorophenyl)-4,5-dihydro-1H-pyrazol-5-yl)phenol] |  | i.a. | 5.30 to 6.00 | 
37 | Oc1ccc(C2CC(c3cccc(C(F)(F)F)c3)=NN2)cc1 (centres unmarked) [Entry 82, 4-(3-(3-(trifluoromethyl)phenyl)-4,5-dihydro-1H-pyrazol-5-yl)phenol] | i.a. | i.a. |  | 
